Here are results for 6 compounds from patent US5858994A, “Carbohydrate conjugates as inhibitors of cell adhesion” (priority 1994, dated 1999).

Series [1] in a line: hydrolysis in aqueous solution. Format: physicochemical. The note with it: elimination of maleic acid, C45 H78 N4 O24 formed.
In series [2] the target is T1, E-Selectin (Homo sapiens, UniProt P16581).
T1 sequence (P16581 22-556): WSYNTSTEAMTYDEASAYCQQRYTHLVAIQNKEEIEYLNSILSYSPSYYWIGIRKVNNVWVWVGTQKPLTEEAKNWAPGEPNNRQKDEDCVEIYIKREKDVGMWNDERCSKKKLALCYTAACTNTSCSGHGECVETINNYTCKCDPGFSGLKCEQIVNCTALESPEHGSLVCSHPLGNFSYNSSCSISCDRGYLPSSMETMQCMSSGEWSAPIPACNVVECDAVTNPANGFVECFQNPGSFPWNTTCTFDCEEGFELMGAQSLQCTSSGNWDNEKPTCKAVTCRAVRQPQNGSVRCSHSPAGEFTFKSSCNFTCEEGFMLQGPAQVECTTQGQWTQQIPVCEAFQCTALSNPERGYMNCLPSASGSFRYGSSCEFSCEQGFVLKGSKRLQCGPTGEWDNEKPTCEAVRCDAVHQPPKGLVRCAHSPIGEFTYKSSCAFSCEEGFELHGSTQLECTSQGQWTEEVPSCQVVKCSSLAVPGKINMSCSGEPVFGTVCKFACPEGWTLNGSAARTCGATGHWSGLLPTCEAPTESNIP
The experiment in a line: Inhibition of HL60 cell adhesion to soluble, recombinant E-selectin (E-selectin-IgG1 fusion protein). Format: cell-based. The note with it: read-out: IC50 E-Selectin; inhibition of HL60 cell adhesion to soluble, recombinant adhesion molecules. The source says: (§1) Carrying out these assays to measure the inhibitory activity of the compounds according to the invention on cell adhesion of promyelocytic cells by means of selecting is described in detail in European Published Application EP 0 601 417.
(§2) In order to test the efficacy of the carbohydrate conjugates on the interaction between the E- and P-selectins (former nomenclature ELAM-1 or GMP-140) with their ligands, an assay is used which in each case is specific only for one of these interactions. The ligands are supplied in their natural form as surface structures on promyelocytic HL60 cells. Since HL60 cells contain ligands and adhesion molecules of very different specificity, the desired specificity of the assay can only be produced by means of the binding component. The binding components used were genetically prepared soluble fusion proteins from the in each case extracytoplasmatic domains of E- or P-selectin and the constant region of a human immunoglobulin of the IgG1 subclass.
Preparation of L-selectin-IgG1
For the preparation of soluble L-selectin-IgG1 fusion protein, the genetic construct "ELAM-Rg" published by Walz et al., 1990 was used.
For expression, the plasmid DNA was transfected in COS-7 cells (ATCC) by means of DEAE-dextran (Molecular Biology Methods: see Ausubel, F. M., Brent, R., Kingston, R. E., Moore, D. D., Seidman, J. G., Struhl, K. and Smith, J. A. 1990. Current Protocols in Molecular Biology, John Wiley, New York). Seven days after transfection, the culture supernatant is recovered, freed from cells and cell fragments by centrifugation and transferred to 25 mM HEPES pH 7.0, 0.3 mM PMSF, 0.02% sodium azide and stored at +4° C.
(§3) 1. 96-well microtiter test plates (Nunc Maxisorb) are incubated at room temperature for 2 hours with 100 μl of a goat anti-human IgG antibody (Sigma) diluted (1+100) in 50 mM Tris pH 9.5. After removing the antibody solution washing is carried out once with PBS.
(§4) 2. 150 μl of the blocking buffer are left in the wells at room temperature for 1 hour. The composition of the blocking buffer is: 0.1% gelatin, 1% BSA, 5% calf serum, 0.2 mM PMSF, 0.02% sodium azide. After removing the blocking buffer washing is carried out once with PBS.
(§5) 3. 100 μl each of cell culture supernatant of appropriately transfected and expressing COS cells are pipetted into the wells. Incubation is carried out at room temperature for 2 hours. After removing the cell culture supernatant washing is carried out once with PBS.
(§6) 4. 20 μl of binding buffer are added to the wells. The binding buffer has the composition: 50 mM HEPES, pH 7.5; 100 mM NaCl; 1 mg/ml BSA; 2 mM MgCl2; 1 mM CaCl2; 3 mM MnCl2; 0.02% sodium azide; 0.2 mM PMSF. 5 μl of the test substance are pipetted into this, mixed by swirling the plate and incubated at room temperature for 10 minutes.
(§7) 5. 50 ml of an HL60 cell culture containing 200,000 cells/ml are centrifuged at 350 g for 4 minutes. The pellet is resuspended in 10 ml of RPMI 1640 and the cells are centrifuged again. For labeling the cells, 50 μg of BCECF-AM (Molecular Probes) are dissolved in 5 μl of anhydrous DMSO; 1.5 ml of RPMI 1640 are then added to the BCECF-AM/DMSO solution. The cells are resuspended using this solution and incubated at 37° C. for 30 minutes. After centrifugation at 350 g for 2 minutes, the labeled cell pellet is resuspended in 11 ml of binding buffer and the resuspended cells are distributed into the microtiter plate wells in 100 μl aliquots. The plate is allowed to stand at room temperature for 10 minutes in order to allow the cells to sediment on the bottom of the test plate. In the course of this, the cells have the opportunity to adhere to the coated plastic.
(§8) 6. To stop the test, the microtiter plate is immersed completely in the stop buffer (25 mM tris, pH 7.5; 125 mM NaCl; 0.1% BSA; 2 mM MgCl2; 1 mM CaCl2; 3 mM MnCl2; 0.02% sodium azide) at an angle of 45°. The stop buffer is removed from the wells by inversion and the procedure is repeated a further two times.

Series [3] concerns the target T2, P-Selectin (Homo sapiens, UniProt P16109).
T2 sequence (P16109 42-771): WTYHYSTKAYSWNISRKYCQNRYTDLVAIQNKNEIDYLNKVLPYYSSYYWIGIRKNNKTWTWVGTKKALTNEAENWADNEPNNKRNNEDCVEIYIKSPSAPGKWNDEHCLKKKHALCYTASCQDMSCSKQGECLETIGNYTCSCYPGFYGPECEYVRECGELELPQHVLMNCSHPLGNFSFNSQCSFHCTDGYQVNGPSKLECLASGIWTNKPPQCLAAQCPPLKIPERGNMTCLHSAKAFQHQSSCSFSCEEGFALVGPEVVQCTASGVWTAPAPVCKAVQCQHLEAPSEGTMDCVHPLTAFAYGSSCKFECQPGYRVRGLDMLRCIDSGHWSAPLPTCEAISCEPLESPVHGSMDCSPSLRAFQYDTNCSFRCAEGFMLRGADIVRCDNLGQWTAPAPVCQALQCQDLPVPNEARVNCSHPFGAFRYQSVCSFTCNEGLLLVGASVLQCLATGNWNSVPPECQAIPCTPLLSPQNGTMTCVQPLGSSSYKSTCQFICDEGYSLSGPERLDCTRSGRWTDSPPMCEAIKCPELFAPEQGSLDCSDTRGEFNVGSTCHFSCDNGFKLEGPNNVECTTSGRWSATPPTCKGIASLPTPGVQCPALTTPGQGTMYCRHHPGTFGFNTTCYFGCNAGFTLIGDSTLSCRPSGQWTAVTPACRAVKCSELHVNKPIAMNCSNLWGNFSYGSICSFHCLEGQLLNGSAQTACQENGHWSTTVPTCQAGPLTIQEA
The experiment in a line: Inhibition of HL60 cell adhesion to soluble, recombinant P-selectin (P-selectin-IgG1 fusion protein). Type of series: cell-based. The note with it: read-out: IC50 P-Selectin; inhibition of HL60 cell adhesion to soluble, recombinant adhesion molecules.
Text: as §1, §2
Preparation of P-selectin-IgG1
For preparation of the soluble P-selectin-IgG1 fusion protein, the genetic construct "ICD62Rg" published by Aruffo et al., 1991 is used. The further procedure corresponds to the preparation of L-selectin-IgG1 presented under A1.
as §3, §4, §5, §6, §7, §8
7. Measurement of the BCECF-AM-labeled cells firmly adhering to the wells is carried out in a cytofluorimeter (Millipore) at a sensitivity setting of 4, an excitation wavelength of 485/220 nm and an emission wavelength of 530/250 nm.

Series [4] deals with P-selectin-dependent lung injuries. As to conditions: animal experiments; cited from earlier work.
Series [5] concerns myocardial reperfusion injuries. The note with it: animal experiments; cited from earlier work.
The subject of series [6] is selectin receptors. The experiment in a line: binding to selectin receptors, statements in words.

`CC(=O)N[C@H]1[C@H](OCCCCCCNC(=O)C2CCC(CNC(=O)/C=C\C(=O)O)CC2)O[C@H](CO)[C@@H](O[C@@H]2O[C@H](CO)[C@H](O)[C@H](O[C@]3(C(=O)O)C[C@H](O)[C@@H](NC(C)=O)[C@H]([C@H](O)[C@H](O)CO)O3)[C@H]2O)[C@@H]1O[C@@H]1O[C@@H](C)[C@@H](O)[C@@H](O)[C@@H]1O` (stereo partly shown): the “hydrolysis in aqueous solution” value in series [1] is “slowly hydrolyzes further in aqueous solution”.

In the case of `CC(=O)N[C@@H]1[C@@H](O[C@@H]2O[C@@H](C)[C@@H](O)[C@@H](O)[C@@H]2O)[C@H](O[C@@H]2O[C@H](CO)[C@H](O)[C@H](O[C@]3(C(=O)O)C[C@H](O)[C@@H](NC(C)=O)[C@H]([C@H](O)[C@H](O)CO)O3)[C@H]2O)[C@@H](CO)O[C@H]1NC(=O)CCC(CCC(=O)N[C@@H]1O[C@H](CO)[C@@H](O[C@@H]2O[C@H](CO)[C@H](O)[C@H](O[C@]3(C(=O)O)C[C@H](O)[C@@H](NC(C)=O)[C@H]([C@H](O)[C@H](O)CO)O3)[C@H]2O)[C@H](O[C@@H]2O[C@@H](C)[C@@H](O)[C@@H](O)[C@@H]2O)[C@H]1NC(C)=O)(CCC(=O)N[C@@H]1O[C@H](CO)[C@@H](O[C@@H]2O[C@H](CO)[C@H](O)[C@H](O[C@]3(C(=O)O)C[C@H](O)[C@@H](NC(C)=O)[C@H]([C@H](O)[C@H](O)CO)O3)[C@H]2O)[C@H](O[C@@H]2O[C@@H](C)[C@@H](O)[C@@H](O)[C@@H]2O)[C@H]1NC(C)=O)[N+](=O)[O-]` [II-1, tris{2-[N-(5-acetamido-3,5-dideoxy-D-glycero-D-galacto-2-nonulopyranosylate)-(2→3)-(β-D-galactopyranosyl)-(1→4)-[(α-L-fucopyranosyl)-(1→3)]-2-acetamido-1,2-dideoxy-β-D-glucopyranose]amidoethyl}nitro-methane], the IC50 in series [2] is 380 µM; in series [3], over 800 µM.

For the compound `CC(=O)N[C@H]1[C@H](OCCCCCCNC(=O)CCC(CCC(=O)NCCCCCCO[C@@H]2O[C@H](CO)[C@@H](O[C@@H]3O[C@H](CO)[C@H](O)[C@H](O[C@]4(C(=O)O)C[C@H](O)[C@@H](NC(C)=O)[C@H]([C@H](O)[C@H](O)CO)O4)[C@H]3O)[C@H](O[C@@H]3O[C@@H](C)[C@@H](O)[C@@H](O)[C@@H]3O)[C@H]2NC(C)=O)(CCC(=O)NCCCCCCO[C@@H]2O[C@H](CO)[C@@H](O[C@@H]3O[C@H](CO)[C@H](O)[C@H](O[C@]4(C(=O)O)C[C@H](O)[C@@H](NC(C)=O)[C@H]([C@H](O)[C@H](O)CO)O4)[C@H]3O)[C@H](O[C@@H]3O[C@@H](C)[C@@H](O)[C@@H](O)[C@@H]3O)[C@H]2NC(C)=O)[N+](=O)[O-])O[C@H](CO)[C@@H](O[C@@H]2O[C@H](CO)[C@H](O)[C@H](O[C@]3(C(=O)O)C[C@H](O)[C@@H](NC(C)=O)[C@H]([C@H](O)[C@H](O)CO)O3)[C@H]2O)[C@@H]1O[C@@H]1O[C@@H](C)[C@@H](O)[C@@H](O)[C@@H]1O` [II-2], the IC50 came to 130 µM in series [2] and 140 µM in series [3].

Turning to `CC(=O)N[C@H]1[C@H](OCCCCCCNC(=O)CCCCCNC(=O)CCC(CCC(=O)NCCCCCC(=O)NCCCCCCO[C@@H]2O[C@H](CO)[C@@H](O[C@@H]3O[C@H](CO)[C@H](O)[C@H](O[C@]4(C(=O)O)C[C@H](O)[C@@H](NC(C)=O)[C@H]([C@H](O)[C@H](O)CO)O4)[C@H]3O)[C@H](O[C@@H]3O[C@@H](C)[C@@H](O)[C@@H](O)[C@@H]3O)[C@H]2NC(C)=O)(CCC(=O)NCCCCCC(=O)NCCCCCCO[C@@H]2O[C@H](CO)[C@@H](O[C@@H]3O[C@H](CO)[C@H](O)[C@H](O[C@]4(C(=O)O)C[C@H](O)[C@@H](NC(C)=O)[C@H]([C@H](O)[C@H](O)CO)O4)[C@H]3O)[C@H](O[C@@H]3O[C@@H](C)[C@@H](O)[C@@H](O)[C@@H]3O)[C@H]2NC(C)=O)[N+](=O)[O-])O[C@H](CO)[C@@H](O[C@@H]2O[C@H](CO)[C@H](O)[C@H](O[C@]3(C(=O)O)C[C@H](O)[C@@H](NC(C)=O)[C@H]([C@H](O)[C@H](O)CO)O3)[C@H]2O)[C@@H]1O[C@@H]1O[C@@H](C)[C@@H](O)[C@@H](O)[C@@H]1O` [II-3], the IC50 in series [2] is 400 µM; in series [3], over 1000 µM.

Take `CC(=O)N[C@@H]1[C@@H](O[C@@H]2O[C@@H](C)[C@@H](O)[C@@H](O)[C@@H]2O)[C@H](O[C@@H]2O[C@H](CO)[C@H](O)[C@H](O[C@]3(C(=O)O)C[C@H](O)[C@@H](NC(C)=O)[C@H]([C@H](O)[C@H](O)CO)O3)[C@H]2O)[C@@H](CO)O[C@H]1O` [SLeX]: the “use in P-selectin-dependent lung injuries” value in series [4] is “successfully used”. The “use in myocardial reperfusion injuries” value in series [5] was “successfully used”.

As for “Arg-Gly-Asp-Ala (RGDA; printed: Arg-Gly-Asp-Ala)”, in series [6], the “binding of the peptide on its own to selectins” value is reported as “does not bind”.

A word on the IC50: it is the concentration that gives 50% inhibition.
